The results in this text go back to patent publication US20180155737A1, “METHOD FOR MODULATING PLANT ROOT ARCHITECTURE” (priority 2012, published 2018).

Entries after “also recorded” stand apart in the source; their conditions may differ. Square brackets hold non-standard residues; d marks the D form. Ends that are not written are not given here. Hyp = O=C(O)[C@@H]1C[C@@H](O)CN1

In one assay the test system is rice seedlings. The experiment in a line: Liquid culture (half strength MS), root formation of rice seedlings. Particulars: 1 μM peptide. Format: in vivo. As to the method: The plants were grown in liquid media containing half strength MS media with or without peptides for two weeks. Monocot RAR peptide: DTRATDFGHS(P)GAGH where (P) is hydroxyproline. Students' t-test, *: P<0.05; N>6. Error bars represent SE.
The plants were grown in liquid media containing half strength MS media with or without peptides for two weeks. Monocot RAR peptide: DTRATDPGHS(P)GAGH where (P) is hydroxyproline:
Primary root length was also affected (FIG. 23).

For assay [1], the system named is Arabidopsis thaliana WT Col plants. Nature of the assay: RAR bioactivity in Arabidopsis at different concentrations. Format: in vivo. As to the method:
To investigate the effect of different modifications on peptide bioactivity, several peptides were assayed for activity at different concentrations (Table 4), WT Col plants were grown vertically on ½ MS plates with 1% phytagel and containing varying concentration of RAR peptide ranging from 10^−6 M to 10^−12 M or no peptide. Plates were imaged at 12 days.

A further assay concerns M. truncatula roots. The experiment in a line: Exogenous application of synthetic RAR peptides to M. truncatula roots (lateral roots, CCP sites/bumps, root growth). Format: in vivo, Medicago truncatula. Particulars: for Periodic bump (CCP site) formation: synthetic peptide applied to roots. The procedure: Seeds of M. truncatula cv Jemalong genotype A17 wild-type and M. truncatula 2HA line carrying either GH3 promoter-GUS reporter fusion gene (GH3:GUS) were grown under standard conditions (Holmes P, Goffard N, Weiller G F, Rolfe B G, & Imin N (2008), “Transcriptional profiling of Medicago truncatula meristematic root cells”, BMC Plant Biol 8:21).
The RAR peptides were synthesized at the Biomolecular Resource Facility, The Australian National University. The 15 amino acid (aa) peptides corresponding to the conserved domains of MtRAR1 (AFQHypTTPGNSHypGVGH and […]ypGVGH, where Hyp indicates hydroxy proline residue) and M. hapla MhRAR2 (AFRHypTAPGHSHypGVGH) were synthesized and validated as previously described in Djordjevic M A. et al. (2011), “Border sequences of Medicago truncatula CLE36 are specifically cleaved by endoproteases common to the extracellular fluids of Medicago and soybean”. J Exp Bot 62(13):4649-4659. The root length of wild-type plants was measured four days after transfer to Fåhraeus-medium containing the synthetic peptide. For the hormone assays, A17 plants were grown on Fåhraeus-medium for 10 days before transferring to Fåhraeus-medium containing 10^−6 M of the respective phytohormones; 1-aminocyclopropant-1-carboxylic acid (ACC), 6-benzylaminopurine (BAP), gibberallic acid (GA), synthetic analog of strigolactone (GR24), methyljasmonate (MeJA) and 1-naphthaleneacetic acid (NAA).

Assay [2] concerns M. truncatula root nodulation by S. meliloti. Nature of the assay: Nodulation with S. meliloti of peptide-treated M. truncatula plants. The format is in vivo, Medicago truncatula. An excerpt:
The 3-weeks old transformed hairy-roots plants were first transferred to a modified Fahraeus media without […] and kanamycin to starve the plants of nitrogen for 4 days. Inoculation with Sinorhizobium meliloti was done as described in Saur I M, Oakes M, Djordjevic M A, & Imin N (2011), “Crosstalk between the nodulation signaling pathway and the autoregulation of modulation in Medicago truncatula”, New Phytol 190(4):[…].
(§1) (b) partial nitrate tolerance of nodule development induced by WSM1022 on MtRAR1 over-expressing plants. Three weeks old composite plants were inoculated and scored two weeks post inoculation. N≥30. student's t-test; *; P<0.05; **; P<0.01; ***; P<0.001. (e) Acetylene reduction assay. MtRAR1 treated (1 μM) and non treated wild-type plants grown in Fåhraeus medium were harvested at 2 week post inoculation by S. meliloti WSM1022. Nitrogenase activity was calculated from peak areas of samples relative to acetylene and ethylene standards to obtain nmoles ethylene/min. N≥3, student's t-test; *: P<0.05; **: P<0.01. Error bars indicate SE. (d) Inoculation of plants with performed CCPs led to root nodule formation at CCP sites at 25 mM KNO3. Arrow head: CCP sites: Arrows: nodules. […] Scale bar: 100 μm. Plants were grown at 20° C.
FIG. 32 M. truncatula plants were grown in 0.8% agar-containing plates supplemented with F media with or without MtRAR1 peptide. Five-day old seedlings were inoculated with S. meliloti strain WSM1022 and further grown for two mom weeks. MtRAR1 Domain 1: AFQ(P)TTPGNS(P)GVGH: MtRAR1 Domain 1 with G−>A transition: AFQ(P)TTPANS(P)GVGH. (P) is hydroxylproline and the altered amino acid is underlined.

Assay [3] relates to Arabidopsis thaliana WT Col plants. The experiment in a line: Rescue: transfer of Arabidopsis plants between RAR and no RAR plates. The format is in vivo. As to the method:
To investigate whether the effect of RAR peptide addition could be released, WT Col plants were grown vertically for 6 days on […] plates with 1% phytagel. Plants were transferred from plates containing no RAR or 1 μM RAR6 hyP peptide (pre-treatment) to plates containing no RAR or 1 μM RAR6 hyP peptide as specified where they were left to grow for a further 6 days before being analysed.

Assay [4] shares this test system. Nature of the assay: Time course of RAR action in Arabidopsis over 12 days. Particulars: 1 μM. Format: in vivo. As to the method:
To see how RAR was exerting its effect on PR growth and lateral root emergence and growth, a time course was performed over 12 days, WT Col plants were grown vertically on ½ MS with 1% phytagel and 1 μM RAR6 hyP or no peptide, with 16 hr days at 22° C. Plates were scanned every day for 12 days.

For assay [5], the system named is Subterranean Clover Cultivar Woogenellup. The experiment in a line: Lateral root formation of plants grown in magenta jars with peptide. Particulars: 1 μM peptide. Format: in vivo. The procedure: (§2) M. truncatula, M. sativa, Subterranean Clover Cultivar Woogenellup and white clover (Trifolium repens) plants were grown in 0.4% agar-containing magenta jars supplemented with F media with or without peptides for two weeks. The media contained 5 mM KNO3. MtRAR1 peptide: FQ(P)TTPGNS(P)GVGH where (P) is hydroxyproline. Students' t-test *: P<0.05; **; P<0.01; ***: P<0.001; N>12. Error bars represent SE.
The plants were grows in 0.4% agar-containing magenta jars supplemented with F media with or without peptides for two weeks. The media contained 5 mM KNO3. MtRAR1 peptide: FQ(P)TTPGNS(P)GVGH where (P) is hydroxyproline.
(§3) To further validate and exemplify the RAR technology, we have examined RAR peptide addition of roots of various plant species.

Another assay has as its system M. truncatula. The description is as above. The format is in vivo, Medicago truncatula. Particulars: 1 μM peptide, 5 mM KNO3, two weeks, P<0.05. The procedure: as §2, §3
In a further assay the test system is Lucerne (M. sativa). The assay is described as above. The format is in vivo. Particulars: 1 μM peptide. As to the method: as §2
The plants were grown in 0.4% agar-containing magenta jars supplemented with F media with or without peptides for two weeks. The medium contained 5 mM KNO3. MtRAR1 peptide: FQ(P)TTPGNS(P)GVGH where (P) is hydroxyproline.
as §3

The subject of assay [6] is microtom tomato seedlings. The experiment in a line: Plate assay, lateral root formation on microtom tomato seedlings. Format: in vivo. Particulars: 1 μM peptide. As to the method:
The plants were grown so 0.8% agar-containing plates supplemented with F media with or without peptides for two weeks. The media contained 5 mM KNO3. MtRAR1 peptide: […] where (P) is hydroxyproline. Students' t-test, **: P<0.01; N>12. Error bars represent SE.
The plants were grows in 0.8% agar-containing plates supplemented with F media with or without peptides for two weeks. The medium contained 5 mM KNO3. MtRAR1 peptide: FQ(P)TTPGNS(P)GVGH where (P) is hydroxyproline.
Primary root length was not affected (FIG. 6).

Assay [7] deals with white clover (Trifolium repens). Nature of the assay: Lateral root formation of plants grown in magenta jars with peptide. Format: in vivo. Particulars: 1 μM peptide. As to the method: as §2
The plants were grown in 0.4% agar-containing magenta jars supplemented with F medium with on without peptides for two weeks. The media contained 5 mM KNO3. MtRAR1 peptide: […] where (P) is hydroxyproline.
as §3

In a further assay the test system is Nitrogenase activity. The experiment in a line: Acetylene reduction assay (nitrogenase activity) of plants inoculated with S. meliloti WSM1022. Format: in vivo, Medicago truncatula. Particulars: 1 μM peptide. As to the method:
as §1

The next assay has as its system soybean seedlings. Nature of the assay: Liquid culture, root formation of soybean seedlings. Particulars: 1 μM peptide. Format: in vivo. The procedure:
The plants were grown in liquid supplemented with F medium with or without peptides for two weeks. The medium contained 5 mM KNO3. GmRAR peptide: NFR(P)TAPGHS(P)GVGH where (P) is hydroxyproline. Students' t-test, **; P<0.01; N>6. Error bars represent SE.
The plants were grown in liquid supplemented with F medium with or without peptides for two weeks. The media contained 5 mM KNO3. GmRAR peptide: […] where (P) is hydroxyproline.
Primary root length was also affected (FIG. 21).

[8] abbreviates: range tested 10^−6 M to 10^−12 M, 12 days.

DTRATDPGHS(P)GAGH [Monocot RAR peptide]: the Primary root length entry with rice seedlings is “affected”. In addition, the Number of roots entry in the assay on rice seedlings (liquid half strength MS, two weeks, P<0.05) is “reduction”.

Consider “D F V P T S P G N S P G V G H (DFVPTSPGNSPGVGH) [RAR5 no HyP]”, for which the “Concentration at which the peptide is active” value in assay [1] (setting [8]) is reported as 10^−9 M.

Turning to “AFQ(P)TTPANS(P)GVGH [MtRAR1 Domain 1 with G−>A transition]”, in the assay with M. truncatula roots (compared with MtRAR1 peptide), the “Inhibition of lateral root emergence (structure activity relationship of peptide variants)” value was “greatly attenuated”. For the same substance, the Nodule numbers entry in assay [2] (1 μM peptide, 5 mM and 25 mM KNO3, trend = significant increase as with MtRAR1 over-expression) is reported as “non-functional”.

With AFR[Hyp]TAPGHS[Hyp]GVGH [MhRAR2], the “Periodic bump (CCP site) formation” value in the assay on M. truncatula roots is listed as “Maximum CCP site generation; also recorded: Periodic bumps”.

Take “D F R hyP T T P G H S hyP G I G H [RAR6 hyP]”: in [3] (1 μM, 6 + 6 days, p<0.05), the “Primary root length of plants pre-treated with RAR and transferred to no RAR versus plants exposed to RAR continuously” value is “significantly higher”. Moreover, the “Number of lateral roots after transfer to no RAR, by pre-treatment” value in [3] (6 days pre-treatment with 1 μM or no RAR, then 6 days no RAR) is reported as “the same”. Also, the “PR length, treated versus untreated” value in assay [4] (2 days post imbibing) is recorded as “no significant difference”; in assay [4] (from day 3 onwards) it was “significantly shorter”. The “Number of lateral roots, treated versus untreated” value in assay [4] (scanned every day for 12 days) is “not significantly different until day 8”.

Regarding “D F V hyP T S P G N S hyP G V G H [RAR5 hyP]”, the “Concentration at which the peptide is active” value in [1] (setting [8]) is given as 10^−8 M.

As to “AFQ[Hyp]TTPGNS[Hyp]GVGH [MtRAR1 peptide]”, the “CCP (bump) site formation” value (in assay [5]; with Lucerne (M. sativa); in assay [7]) was “formed CCP” in each case. The Lateral root emergence entry is “significantly inhibited” in assay [5] (5 mM KNO3, two weeks, P<0.05); “significantly inhibited” in the assay with M. truncatula; “significantly inhibited” with Lucerne (M. sativa) (5 mM KNO3, two weeks, P<0.05); “significantly inhibited” in assay [7] (5 mM KNO3, two weeks, P<0.05). In [6], the Primary root length result is reported as “not affected”. Besides, the “Number of lateral roots” value in [6] (5 mM KNO3, two weeks, P<0.05) was “reduction”. The Main root growth entry in the assay with M. truncatula roots (10^−6 M peptide) is “significantly inhibited”. Further, in the assay on M. truncatula roots (A17 plants, F medium containing 25 mM KNO3, 10^−6 M peptide), the Lateral root formation result is reported as “significantly reduced”. The “Concentration for dose-dependent inhibition of lateral root emergence” value with M. truncatula roots (in vivo) is listed as “greater than 10^−7 M”. Also, the “Periodic bump (CCP site) formation” value in the assay on M. truncatula roots is “Maximum CCP site generation; also recorded: Periodic bumps”. In addition, the “Numbers of pink functional nodules” value in assay [2] (1 μM peptide, 5 mM and 25 mM KNO3, compared to controls) is recorded as “significantly higher numbers”. For the same substance, the “Nodule development (nodule sections)” value in assay [2] (0.5 mM or 25 mM KNO3, three weeks, versus untreated plants) is given as “accelerated nodule development”. Moreover, the Nodule size entry in assay [2] (all across the nitrate regimen, versus no peptide or G->A peptide) is reported as “much larger”. For the same substance, the “Increase in nitrogenase activity” value is on record as 35% with Nitrogenase activity (0 mM KNO3, 2 week post inoculation) and 200% in the assay on Nitrogenase activity (5 mM KNO3, 2 week post inoculation).

Regarding NFR(P)TAPGHS(P)GVGH [GmRAR peptide], the Primary root length entry with soybean seedlings was “affected”. For the same substance, in the assay with soybean seedlings (liquid F medium, 5 mM KNO3, two weeks, P<0.05), the Number of roots result is reported as “reduction”.

“D F V hyP T (p-S) P G N S hyP G V G H [RAR5 phos]”: the “Effect of phosphorylation on activity” value in [1] (Arabidopsis RAR5) was “enhances activity”.

In the case of “D F R hyP T (p-T) P G H S hyP G I G H [RAR6 phos]”, in assay [1] (in vivo), the “Activity relative to the non-phosphorylated RAR6 peptide” value stood at 1000 ×. The “Concentration range at which the peptide is active (in words)” value in [1] (setting [8]) is “picomolar”.
